Measurements from paper PMC3690532 (Structure (London, England : 1993), 2013).

Target: T1, S. enterica MTAN (SeMTAN) (Salmonella choleraesuis, UniProt Q57T48)
T1 sequence (Q57T48 1-232): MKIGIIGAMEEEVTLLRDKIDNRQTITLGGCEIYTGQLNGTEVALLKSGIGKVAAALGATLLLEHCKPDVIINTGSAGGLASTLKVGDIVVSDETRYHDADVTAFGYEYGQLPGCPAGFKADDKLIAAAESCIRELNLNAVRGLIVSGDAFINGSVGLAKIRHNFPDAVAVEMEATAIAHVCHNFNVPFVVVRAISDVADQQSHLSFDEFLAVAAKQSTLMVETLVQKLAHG
Test: slow-onset inhibition constant
Format: biochemical
Conditions: for ΔG (Gibbs free energy): generated from Ki* using ΔG = RT ln Ki*; for ΔΔG: methylthio-DADMe-ImmA as reference

Structure (SMILES) | ΔG (Gibbs free energy) [kcal/mol] | ΔΔG [kcal/mol] | ΔG of binding higher when compared to MT-, DiEGT- and BuT-DADMe-ImmA (difference versus the three inhibitors) [kcal/mol]
Nc1ncnc2c(CN3CC(O)C(CSCCOCCO)C3)c[nH]c12 (stereo not drawn) [2-(2-hydroxyethoxy)ethylthio-DADMe-ImmA] | -15.4 ± 0.1 | 0 | 
Nc1ncnc2c(CN3CC(O)C(CSCCO)C3)c[nH]c12 (stereo not drawn) [2-Hydroxyethylthio-DADMe-ImmA] | -14.9 ± 0.1 | 0.5 | 
Nc1ncnc2c(CN3CC(O)C(CSCCCO)C3)c[nH]c12 (stereo not drawn) [3-Hydroxypropylthio-DADMe-ImmA] | -15.2 ± 0.2 | 0.2 | 
Nc1ncnc2c(CN3CC(O)C(CSCCCCO)C3)c[nH]c12 (stereo not drawn) [4-Hydroxybutylthio-DADMe-ImmA] | -14.8 ± 0.1 | 0.6 | 
CCCCSC[C@H]1CN(Cc2c[nH]c3c(N)ncnc23)C[C@@H]1O [Butylthio-DADMe-ImmA, reference compound] | -16.1 ± 0.2 | -0.7 | 
Nc1ncnc2c(CN3C[C@H](CSCC[C@H](N)C(=O)O)[C@@H](O)C3)c[nH]c12 [Homocysteine-DADMe-ImmA, reference compound] | -13.9 ± 0.1 | 1.5 | 1.5 to 2.2
CSC[C@H]1CN(Cc2c[nH]c3c(N)ncnc23)C[C@@H]1O [Methylthio-DADMe-ImmA, reference compound] | -15.4 ± 0.1 | 0 | 
